Several values for one entry are separate records, joined by “and”; a condition that tells them apart may be missing. Equal entries are not always repeated. Activity calls are given as the source filed them.
Columns and labels:
[1] = target: FAD-linked sulfhydryl oxidase ALR (Homo sapiens, UniProt P55789); assay: inhibitors of human ALR sulfhydryl oxidase, dose response, biochemical, H2O2 detection, luminescence, cherry-pick (AID 493248)
[2] = HEp-2 cell cytotoxicity, dose response, cytotoxicity control for RSV inhibitor project, HTS (AID 2410); type: functional; conditions: human respiratory syncytial virus
Cytochrome P450 2C19 = Cytochrome P450 2C19 (Homo sapiens, UniProt P33261); assay: Cytochrome panel assay with activity outcomes. Panel member name: p450-cyp2c19 Compounds with AC50 equal or less than 10 uM are considered active; type: functional
Sequence of Cytochrome P450 2C19 (P33261 whole entry): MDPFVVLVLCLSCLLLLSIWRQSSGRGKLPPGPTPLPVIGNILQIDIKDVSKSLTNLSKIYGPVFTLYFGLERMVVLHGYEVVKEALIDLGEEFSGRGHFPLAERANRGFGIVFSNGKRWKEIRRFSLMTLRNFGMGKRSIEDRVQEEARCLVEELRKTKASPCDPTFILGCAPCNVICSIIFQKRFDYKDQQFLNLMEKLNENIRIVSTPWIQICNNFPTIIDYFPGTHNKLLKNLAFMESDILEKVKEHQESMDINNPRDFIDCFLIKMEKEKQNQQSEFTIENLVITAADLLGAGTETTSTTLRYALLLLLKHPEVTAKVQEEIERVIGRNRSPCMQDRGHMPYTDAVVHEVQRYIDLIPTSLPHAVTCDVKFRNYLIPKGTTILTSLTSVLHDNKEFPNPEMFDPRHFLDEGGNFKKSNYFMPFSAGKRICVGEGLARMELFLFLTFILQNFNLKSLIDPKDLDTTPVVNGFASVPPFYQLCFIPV

Cytochrome P450 3A4 = Cytochrome P450 3A4 (Homo sapiens, UniProt P08684);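 note: CYP3A4 tested as one member of a cytochrome P450 panel screen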
Sequence of Cytochrome P450 3A4 (P08684 whole entry): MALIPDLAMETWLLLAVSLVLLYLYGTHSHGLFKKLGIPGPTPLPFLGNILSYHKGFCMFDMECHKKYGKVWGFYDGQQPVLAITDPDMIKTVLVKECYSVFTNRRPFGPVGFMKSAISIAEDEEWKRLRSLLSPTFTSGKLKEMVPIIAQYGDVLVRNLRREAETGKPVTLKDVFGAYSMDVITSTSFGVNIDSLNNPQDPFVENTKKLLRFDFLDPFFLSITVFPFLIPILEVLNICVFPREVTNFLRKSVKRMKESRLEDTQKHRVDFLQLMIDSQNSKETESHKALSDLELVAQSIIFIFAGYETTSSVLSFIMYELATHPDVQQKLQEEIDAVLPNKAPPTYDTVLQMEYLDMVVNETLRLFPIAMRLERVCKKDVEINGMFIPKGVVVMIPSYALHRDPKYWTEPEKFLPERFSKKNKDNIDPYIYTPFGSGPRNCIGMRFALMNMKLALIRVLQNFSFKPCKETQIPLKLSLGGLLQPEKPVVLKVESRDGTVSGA

Cytochrome P450 1A2 = target: T1, Cytochrome P450 1A2 (Homo sapiens, UniProt P05177);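 note: PubChem cytochrome P450 panel assay, CYP1A2 panel member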
T1 sequence (P05177 whole entry): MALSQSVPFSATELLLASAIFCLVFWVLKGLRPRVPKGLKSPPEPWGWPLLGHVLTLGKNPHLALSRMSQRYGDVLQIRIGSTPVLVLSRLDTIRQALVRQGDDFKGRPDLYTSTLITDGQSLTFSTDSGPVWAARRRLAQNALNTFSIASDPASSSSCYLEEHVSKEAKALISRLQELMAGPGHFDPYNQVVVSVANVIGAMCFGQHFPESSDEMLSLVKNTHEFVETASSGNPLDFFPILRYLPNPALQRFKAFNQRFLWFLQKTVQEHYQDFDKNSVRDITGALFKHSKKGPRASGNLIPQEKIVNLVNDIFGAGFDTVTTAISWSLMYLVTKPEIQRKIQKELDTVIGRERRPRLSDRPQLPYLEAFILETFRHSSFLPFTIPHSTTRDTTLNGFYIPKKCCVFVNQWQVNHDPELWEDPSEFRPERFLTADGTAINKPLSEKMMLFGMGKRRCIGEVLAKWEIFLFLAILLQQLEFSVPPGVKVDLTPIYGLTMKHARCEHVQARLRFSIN

Cytochrome P450 2C9 = Cytochrome P450 2C9 (Homo sapiens, UniProt P11712)
Sequence of Cytochrome P450 2C9 (P11712 whole entry): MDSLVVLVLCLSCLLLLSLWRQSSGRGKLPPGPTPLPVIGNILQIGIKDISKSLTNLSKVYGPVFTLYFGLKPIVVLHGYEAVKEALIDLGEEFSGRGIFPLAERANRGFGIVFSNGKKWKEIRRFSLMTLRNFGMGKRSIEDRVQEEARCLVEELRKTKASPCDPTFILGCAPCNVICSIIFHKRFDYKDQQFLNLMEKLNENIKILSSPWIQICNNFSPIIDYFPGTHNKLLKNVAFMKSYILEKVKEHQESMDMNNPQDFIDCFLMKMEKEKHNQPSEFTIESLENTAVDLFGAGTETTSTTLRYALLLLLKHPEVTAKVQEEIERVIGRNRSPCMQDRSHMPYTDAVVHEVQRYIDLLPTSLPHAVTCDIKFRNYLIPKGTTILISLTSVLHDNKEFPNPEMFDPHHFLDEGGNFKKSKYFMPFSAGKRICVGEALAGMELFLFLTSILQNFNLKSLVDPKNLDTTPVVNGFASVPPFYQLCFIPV

[3] = Luminescence Cell-Based Dose Response HTS to Identify Inhibitors of 5'UTR Stem-Loop Driven Prion Protein mRNA Translation in H4 Neuroglioblastoma Cells. [Related pubchem assays: 1827 (Project Summary), 1813 (Primary HTS)]; type: functional
[4] = inhibitors of firefly luciferase expression or activity, dose response, H4 neuroglioma cells, luminescence (AID 1990); type: functional, cell-based
[5] = inhibitors of SNCA 5'UTR-driven reporter translation, confirmation, H4 neuroglioma cells, luminescence (AID 1988); type: functional, cell-based
cells = type: functional
[6] = Luminescence Cell-Based Dose Response HTS to Identify Activators of Luciferase Translation or Activity in H4 […] Cells. [Related pubchem assays: 1829 (Project Summary), 1814 (Primary HTS)]; type: functional
H4 = assay: Luminescence Cell-Based Dose Response HTS to Identify Activators of 5'UTR Stem-Loop Driven Prion Protein mRNA Translation in H4 Neuroglioblastoma Cells. [Related pubchem assays: 1829 (Project Summary), 1814 (Primary HTS)]; type: functional; conditions: Homo sapiens
[7] = Luminescence Cell-Based Dose Confirmation HTS to Identify Activators of 5'UTR Stem-Loop Driven Alpha-Synuclein mRNA Translation in H4 Neuroglioblastoma Cells. [Related pubchem assays: 1829 (Project Summary), 1814 (Primary HTS)]; type: functional
[8] = control 3'UTR Renilla luciferase suppression, dose response, counter-screen for Shn3 inhibitor project, cell-based, Clone20-Shn3RL, cherry-picked (AID 624133); type: functional
[9] = target: T2, Heat shock factor protein 1 (Mus musculus, UniProt P38532); assay: inhibition of MG132-induced HSE-luciferase signal, confirmation, cell-based, NIH3T3, luminescence, dose retest (AID 2382); type: functional;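 note: NIH3T3 fibroblasts with HSF1-driven luciferase reporter stressed by proteasome inhibitor MG132; luminescence from HSF1-driven luciferase expression after 8 hours of MG132 stress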
T2 sequence (P38532 whole entry): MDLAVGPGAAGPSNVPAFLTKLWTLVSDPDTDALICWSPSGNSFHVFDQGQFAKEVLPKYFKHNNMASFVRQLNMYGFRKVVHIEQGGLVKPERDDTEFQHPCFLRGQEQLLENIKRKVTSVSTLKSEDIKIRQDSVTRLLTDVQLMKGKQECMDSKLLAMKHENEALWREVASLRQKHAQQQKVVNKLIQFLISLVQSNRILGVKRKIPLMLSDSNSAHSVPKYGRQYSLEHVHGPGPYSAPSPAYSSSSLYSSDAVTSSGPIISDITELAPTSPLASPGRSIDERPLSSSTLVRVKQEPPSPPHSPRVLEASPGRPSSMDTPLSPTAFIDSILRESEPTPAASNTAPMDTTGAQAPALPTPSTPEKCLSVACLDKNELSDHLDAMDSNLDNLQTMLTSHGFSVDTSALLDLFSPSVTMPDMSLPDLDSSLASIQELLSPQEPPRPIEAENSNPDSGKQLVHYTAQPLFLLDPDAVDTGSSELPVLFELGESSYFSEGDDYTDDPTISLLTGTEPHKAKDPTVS

Sequence of FAD-linked sulfhydryl oxidase ALR (P55789 whole entry): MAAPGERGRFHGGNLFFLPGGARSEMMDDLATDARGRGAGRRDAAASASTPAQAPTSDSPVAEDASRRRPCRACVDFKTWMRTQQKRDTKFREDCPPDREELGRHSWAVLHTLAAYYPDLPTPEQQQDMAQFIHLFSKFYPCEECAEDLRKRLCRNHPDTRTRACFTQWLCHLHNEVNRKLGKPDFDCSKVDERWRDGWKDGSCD

COc1ccc(N2CCN(C(=O)Cc3ccc(C)cc3)CC2)cc1
AC50 [1]: 5.48 µM (active)

CCn1c2ccccc2c2cnc(/N=C/N(C)C)c(C#N)c21
CC50 [2]: 37 µM (active)

O=C(O)c1ccc(Sc2nnc(-c3cccc(Br)c3)o2)c([N+](=O)[O-])c1
AC50 [1]: 0.044 µM (active)

Cc1ccc(C(=O)NC(=S)N2CC(C)OC(C)C2)cc1[N+](=O)[O-] (configuration not stated)
AC50 (Cytochrome P450 2C19): inconclusive
AC50 (Cytochrome P450 3A4): 22.4 µM (inconclusive)
AC50 (Cytochrome P450 1A2): 15.8 µM (inconclusive)
AC50 (Cytochrome P450 2C9): 14.1 µM (inconclusive)

Cc1cc(C)n(CCC(=O)N2CCCC(Nc3ccc(F)cc3)C2)n1 (configuration not stated)
AC50 [1]: 33.3 µM (active)

N#CC1CCCc2c1[nH]c1ccc([N+](=O)[O-])cc21 (configuration not stated)
EC50 [3]: > 120 µM (not active)
CC50 [2]: 27.8 µM (active)
EC50 [4]: 11.7 µM (active)
EC50 [5]: 24.5 µM (active)

Cc1cc(NS(=O)(=O)c2ccccc2)c(C)c(Cl)c1O
CC50 [2]: 8.98 µM (active)

CC(CN1CCN(c2ccccc2)CC1)c1ccccc1 (configuration not stated)
AC50 [1]: 66.9 µM (active)

CSc1ccc(CNc2ncc(-c3cccc([N+](=O)[O-])c3)n2C)cc1
IC50 (cells): 21.8 µM (active)

O=C(CCc1ccccc1)NC1C2CC3CC(C2)CC1C3 (configuration not stated)
IC50 (cells): 18.6 µM (active)

CC(=O)c1c(C)[nH]c(C(=O)CSc2ccc(F)cc2)c1C
EC50 [6]: 30.2 µM (active)
EC50 (H4): 71.1 µM (active)
EC50 [7]: 20 µM (active)

CN1CCc2nc(SCC(=O)OC(C)(C)C)c(C#N)cc2C1
EC50 [6]: 15.4 µM (active)
EC50 (H4): 108 µM (active)
EC50 [7]: 20.8 µM (active)

CC(C)N1CCN(Cc2c[nH]c3ccccc23)CC1CCO (configuration not stated)
AC50 [8]: 28.6 µM (active)

CCCCN1CC(=O)C(c2nc3ccccc3s2)=C1N
EC50 [6]: 30.8 µM (active)
EC50 (H4): > 120 µM (not active)
EC50 [7]: 13.8 µM (active)

CC(=O)Nc1ccc(S(=O)(=O)N2CCC(c3nc4cc(C)ccc4[nH]3)CC2)cc1
CC50 [2]: 15.4 µM (active)

Cc1ccc(C(=O)C2=C(O)C(=O)N(Cc3cccnc3)C2c2ccccc2[N+](=O)[O-])cc1 (configuration not stated)
EC50 [6]: 14.9 µM (active)
EC50 (H4): > 120 µM (not active)
EC50 [7]: 30.1 µM (active)

Sc1nnc(-c2ccccn2)n1/N=C/c1ccc(Br)s1
AC50 [1]: 10.5 µM (active)

Cc1ccc(S(=O)(=O)Oc2cc(S(=O)(=O)O)cc3cc(S(=O)(=O)O)cc(N)c23)cc1
AC50 (Cytochrome P450 1A2): 2 µM (inconclusive)

Cn1c(=O)c(-c2cccs2)nc2cnc(N3CCOCC3)nc21
AC50 (Cytochrome P450 1A2): 5.01 µM (inconclusive)

CCN(CC)CC(=O)Nc1ccc2c(c1)Nc1ccccc1CC2
AC50 [1]: 0.221 µM (active)

CCC/C=C(\CCC)C(NC(=O)c1ccc(C(F)(F)F)cc1)c1ccccc1 (configuration not stated)
AC50 (Cytochrome P450 1A2): 25.1 µM (inconclusive)
AC50 (Cytochrome P450 2C9): 3.16 µM (inconclusive)

Fc1cccc2sc(Nc3nc4ccccc4s3)nc12
EC50 [6]: 4.21 µM (active)
EC50 (H4): 1.58 µM (active)
EC50 [7]: 0.106 µM (active)

CCOc1ccc(NC(=O)COC(=O)C2(C)CC2(Cl)Cl)c([N+](=O)[O-])c1 (configuration not stated)
IC50 (cells): 38.4 µM (active)
EC50 [9]: > 195 µM (not active)

N#Cc1cc2cc3c(cc2nc1N1CCCCC1)OCCO3
EC50 [6]: 1.82 µM (active)
EC50 (H4): 1.42 µM (active)
EC50 [7]: 0.139 µM (active)

O=C(CCN1C[C@H]2CC[C@H](CC2)C1)c1cccs1
AC50 (Cytochrome P450 1A2): 5.01 µM (inconclusive)

NC(=NO)c1ccccc1N1CCC(Cc2ccccc2)CC1
AC50 [1]: 27.4 µM (active)

Nc1cccc(OCc2nc(N)nc(N)c2-c2ccc(Cl)cc2)c1
AC50 (Cytochrome P450 1A2): 0.158 µM (inconclusive)

CN1CCC(c2c[nH]c3ccc(O)cc23)CC1
AC50 (Cytochrome P450 3A4): 15.8 µM (inconclusive) and 31.6 µM (inconclusive)
AC50 (Cytochrome P450 1A2): 31.6 µM (inconclusive)

Cc1cc(C)nc(Nc2n[nH]c(-c3ccc(N)cc3)n2)n1
AC50 [1]: 0.311 µM (active)

C=CCN1C[C@H](C)N([C@@H](c2ccccc2)c2ccc(C(=O)N(CC)CC)cc2)C[C@H]1C
AC50 (Cytochrome P450 2C19; read-out: AC50): 0.0631 µM (inconclusive)
AC50 (Cytochrome P450 3A4): 2.51 µM (inconclusive)
AC50 (Cytochrome P450 1A2): 31.6 µM (inconclusive)
AC50 (Cytochrome P450 2C9): 31.6 µM (inconclusive)

COc1ccc(N(C)C(=O)c2cc3c(s2)-c2ccccc2OC3)c(OC)c1
CC50 [2]: 48.3 µM (active)

C=CCNC(=O)/C(=C\c1ccc2c(c1)OCO2)NC(=O)c1ccc(Br)cc1
AC50 (Cytochrome P450 1A2): 14.1 µM (inconclusive)
AC50 (Cytochrome P450 2C9): 5.62 µM (inconclusive)

COC(=O)c1ccc(S(=O)(=O)N2CCc3ccccc32)cc1
EC50 [6]: > 60 µM (not active)
EC50 (H4): > 120 µM (not active)
EC50 [7]: > 120 µM (not active)

Cc1cccc(-n2c(N)c(C(=O)NCCN3CCOCC3)c3nc4ccccc4nc32)c1
EC50 [6]: > 120 µM (not active)
EC50 (H4): > 120 µM (not active)
EC50 [7]: > 120 µM (not active)

Cc1cn(CCC(=O)Nc2ccc(N3CCOCC3)cc2)c2ccccc12
EC50 [6]: 16.1 µM (active)
EC50 (H4): 13.9 µM (active)
EC50 [7]: 11.5 µM (active)

COc1cccc(COC(=O)CCNC(=O)c2ccc(Br)cc2)c1OC
IC50 (cells): 15.4 µM (active)
